The source of these data is patent US11932645B2, “Substituted pyrazolo[1,5-a]pyrimidines and their use in the treatment of medical disorders” (Bial—R&D Investments, S.A., priority 2014, dated 2024).

The assay deals with T1, glucocerebrosidase (Gcase) (Homo sapiens, UniProt P04062).
T1 sequence (P04062 40-536): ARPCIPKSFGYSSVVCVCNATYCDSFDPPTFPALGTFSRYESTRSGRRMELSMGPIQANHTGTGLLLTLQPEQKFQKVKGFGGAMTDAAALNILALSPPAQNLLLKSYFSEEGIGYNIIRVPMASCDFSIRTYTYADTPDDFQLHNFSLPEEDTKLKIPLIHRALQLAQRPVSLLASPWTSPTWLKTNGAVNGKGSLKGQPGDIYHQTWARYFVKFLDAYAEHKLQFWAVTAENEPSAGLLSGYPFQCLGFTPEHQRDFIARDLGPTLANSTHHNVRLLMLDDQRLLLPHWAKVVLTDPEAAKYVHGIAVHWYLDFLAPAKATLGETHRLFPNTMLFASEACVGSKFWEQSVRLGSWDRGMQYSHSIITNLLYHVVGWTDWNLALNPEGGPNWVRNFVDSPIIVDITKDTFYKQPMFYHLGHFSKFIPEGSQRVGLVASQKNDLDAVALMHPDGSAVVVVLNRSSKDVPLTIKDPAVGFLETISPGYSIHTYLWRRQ
The assay is described as follows: Glucocerebrosidase (Gcase) activation assay, 4-methylumbelliferyl-beta-D-glucopyranoside substrate, with saposin C. Format: biochemical. Particulars: 10 nM GCase, 100 nM saposin C, pH 4.7. How it is done:
The ability of exemplary compounds to activate glucocerebrosidase (Gcase) was measured.
A 484 μL aliquot of a 1.0 mg/mL solution of phosphatidylserine (PS) (Sigma P7769) in chloroform was evaporated under a stream of nitrogen for 1 hour. The lipid film was dissolved over 4 minutes of vigorous vortexing in 40 mL of 176 mM K2HPO4/50 mM citric acid (pH 4.7) containing 7.5 μL of triton X-100, resulting in a mixed micellar preparation with a composition of 0.32 mM triton and 0.37 mol % PS. 4-Methylumbelliferyl-beta-D-glucopyranoside (ACROS-337025000) was dissolved in the micellar solution to a final concentration of 2 mM for use as the reaction substrate.
Test compounds were diluted to the desired concentrations with dimethylsulfoxide (DMSO) from 10 mM stocks, and 0.41 μL of the DMSO compound mixture was added to 100 μL of micellar solution containing 10 nM GCase and 100 nM saposin C (Enzo ALX-201-262-C050). Pre-incubation was allowed to occur for 30 minutes at room temperature, after which the reaction was initiated by combining 25 μL of substrate solution with 25 μL of compound/GCase/saposin mixture. The reaction proceeded for 15 minutes at room temperature and was stopped by adding 150 μL of 1M glycine, pH 12.5. The endpoint of the reaction was monitored by measuring fluorescence intensity (excitation: 365 nm; emission: 440 nm) on a SpectraMax i3 instrument (Molecular Devices). Test compounds were screened at 1.0 and 0.1 μM final concentration, and subsequent 8-point dose response curves were obtained using 3-fold dilutions from a maximum final concentration of 5 μM.
For experiments in which the test compound was used at a concentration of 1.0 μM, the symbol “+” indicates less than 30% Gcase activation; the symbol “++” indicates Gcase activation in the range of 30% up to 60%; and the symbol “+++” indicates Gcase activation greater than 60%. For experiments in which the test compound was used at a concentration of 0.1 μM, the symbol “*” indicates less than 10% Gcase activation; the symbol “**” indicates Gcase activation in the range of 10% up to 20%; and the symbol “***” indicates greater than 20% Gcase activation.

Each structure is given as a SMILES string.

For the molecule `C#CCOc1ccc(NC(=O)c2cnn3c(C)cc(C)nc23)cc1` [III-33], the “Percent Gcase Activation 0.1 μM Test Compound” value is listed as “* (less than 10% Gcase activation)” and the “Percent Gcase Activation 1 μM Test Compound” value is recorded as “+ (less than 30% Gcase activation)”.
The corresponding values for `C#Cc1ccc(NC(=O)c2cnn3c(C)cc(C)nc23)c(OC)c1` [III-8] are “** (Gcase activation in the range of 10% up to 20%)” and “++ (Gcase activation in the range of 30% up to 60%)”.
The corresponding values for `Cc1cc(C)n2ncc(C(=O)Nc3ccc4c(c3)CCC4)c2n1` [IV-5] are “** (Gcase activation in the range of 10% up to 20%)” and “+++ (Gcase activation greater than 60%)”.
The corresponding values for `Cc1cc(C)n2ncc(C(=O)Nc3ccc(-c4ccco4)cc3)c2n1` [III-55] are “*** (greater than 20% Gcase activation)” and “+++ (Gcase activation greater than 60%)”.
`Cc1cc(C)n2ncc(C(=O)Nc3ccc4c(c3)CCNC4)c2n1` [III-46]: the “Percent Gcase Activation 0.1 μM Test Compound” value was “* (less than 10% Gcase activation)” and the “Percent Gcase Activation 1 μM Test Compound” value is given as “+ (less than 30% Gcase activation)”.
`Cc1cc(C)n2ncc(C(=O)Nc3ccc4cn[nH]c4c3)c2n1` [III-42]: the “Percent Gcase Activation 0.1 μM Test Compound” value was “* (less than 10% Gcase activation)” and the “Percent Gcase Activation 1 μM Test Compound” value is given as “+ (less than 30% Gcase activation)”.
The corresponding values for `Cc1cc(C)n2ncc(C(=O)N[C@H](C)c3ccc(Cl)cc3)c2n1` [III-64] are “** (Gcase activation in the range of 10% up to 20%)” and “+++ (Gcase activation greater than 60%)”.
Take `Cc1cc(C)n2ncc(C(=O)Nc3cc(-c4ccccc4)on3)c2n1` [III-12]: the “Percent Gcase Activation 0.1 μM Test Compound” value is “* (less than 10% Gcase activation)” and the “Percent Gcase Activation 1 μM Test Compound” value is “+ (less than 30% Gcase activation)”.
The corresponding values for `Cc1cc(C)n2ncc(C(=O)Nc3ccc(-c4cocn4)nc3)c2n1` [III-19] are “* (less than 10% Gcase activation)” and “+ (less than 30% Gcase activation)”.
The corresponding values for `Cc1ccn2ncc(CNc3ccc(-c4cocn4)cc3)c2n1` [III-25] are “* (less than 10% Gcase activation)” and “+ (less than 30% Gcase activation)”.
Turning to `Cc1cc(C)n2ncc(C(=O)Nc3cc(C4(C(F)(F)F)CC4)on3)c2n1` [III-18], the “Percent Gcase Activation 0.1 μM Test Compound” value is reported as “* (less than 10% Gcase activation)” and the “Percent Gcase Activation 1 μM Test Compound” value is given as “+ (less than 30% Gcase activation)”.
The corresponding values for `Cc1cc(C)n2ncc(C(=O)Nc3ccc(-c4nccs4)cc3)c2n1` [III-7] are “** (Gcase activation in the range of 10% up to 20%)” and “+++ (Gcase activation greater than 60%)”.
Consider `Cc1cc(C)n2ncc(C(=O)Nc3ccc(Cl)c(COc4cccnc4)c3)c2n1` [III-51], for which the “Percent Gcase Activation 0.1 μM Test Compound” value was “** (Gcase activation in the range of 10% up to 20%)” and the “Percent Gcase Activation 1 μM Test Compound” value is on record as “+++ (Gcase activation greater than 60%)”.
The corresponding values for `Cc1cc(C)n2ncc(C(=O)Nc3ccc4c(c3)OCO4)c2n1` [IV-4] are “* (less than 10% Gcase activation)” and “++ (Gcase activation in the range of 30% up to 60%)”.
The corresponding values for `Cc1cc(C)n2ncc(C(=O)N[C@@H](C)c3cccc(Cl)c3)c2n1` [III-63] are “** (Gcase activation in the range of 10% up to 20%)” and “+++ (Gcase activation greater than 60%)”.
The corresponding values for `Cc1cc(C)n2ncc(C(=O)Nc3ccc(N4CCCCC4)cc3)c2n1` [IV-3] are “* (less than 10% Gcase activation)” and “+ (less than 30% Gcase activation)”.
Turning to `Cc1cc(C)n2ncc(C(=O)NC(C)C3CCC(F)(F)CC3)c2n1` (centres unmarked) [III-66], the “Percent Gcase Activation 0.1 μM Test Compound” value is recorded as “* (less than 10% Gcase activation)” and the “Percent Gcase Activation 1 μM Test Compound” value is reported as “+ (less than 30% Gcase activation)”.
`Cc1cc(C)n2ncc(C(=O)Nc3ccc4nc(C)sc4c3)c2n1` [III-50]: the “Percent Gcase Activation 0.1 μM Test Compound” value is listed as “* (less than 10% Gcase activation)” and the “Percent Gcase Activation 1 μM Test Compound” value is reported as “++ (Gcase activation in the range of 30% up to 60%)”.
Regarding `Cc1cc(C)n2ncc(C(=O)Nc3ccc(-c4cnn(C)c4)cc3)c2n1` [III-54], the “Percent Gcase Activation 0.1 μM Test Compound” value was “* (less than 10% Gcase activation)” and the “Percent Gcase Activation 1 μM Test Compound” value is “++ (Gcase activation in the range of 30% up to 60%)”.
On to `Cc1cc(C)n2ncc(C(=O)NC3CCCc4ccccc43)c2n1` (centres unmarked) [III-58], for which the “Percent Gcase Activation 0.1 μM Test Compound” value is recorded as “*** (greater than 20% Gcase activation)” and the “Percent Gcase Activation 1 μM Test Compound” value is recorded as “+++ (Gcase activation greater than 60%)”.
Regarding `COc1ccccc1[C@H](C)NC(=O)c1cnn2c(C)cc(C)nc12` [III-61], the “Percent Gcase Activation 0.1 μM Test Compound” value is on record as “** (Gcase activation in the range of 10% up to 20%)” and the “Percent Gcase Activation 1 μM Test Compound” value is “+++ (Gcase activation greater than 60%)”.
The corresponding values for `C#CC1CCC(NC(=O)c2cnn3c(C)cc(C)nc23)CC1` (centres unmarked) [III-13] are “* (less than 10% Gcase activation)” and “+ (less than 30% Gcase activation)”.
The corresponding values for `Cc1ccn2ncc(CNc3ccc(-c4ncco4)cc3)c2n1` [III-26] are “* (less than 10% Gcase activation)” and “+ (less than 30% Gcase activation)”.
`Cc1cc(C)n2ncc(C(=O)NC(C)(C)c3ccc(Cl)cc3)c2n1` [III-67]: the “Percent Gcase Activation 0.1 μM Test Compound” value is given as “** (Gcase activation in the range of 10% up to 20%)” and the “Percent Gcase Activation 1 μM Test Compound” value is given as “+++ (Gcase activation greater than 60%)”.
The corresponding values for `Cc1cc(C)n2ncc(C(=O)Nc3ccc(-c4cocn4)cc3)c2n1` [III-10] are “** (Gcase activation in the range of 10% up to 20%)” and “+++ (Gcase activation greater than 60%)”.
The corresponding values for `Cc1cc(C)n2ncc(C(=O)N[C@H](C)c3ccc(F)cc3)c2n1` [III-65] are “* (less than 10% Gcase activation)” and “++ (Gcase activation in the range of 30% up to 60%)”.
The corresponding values for `Cc1cc(C)n2ncc(C(=O)Nc3ccc(-c4ncco4)cc3)c2n1` [III-11] are “** (Gcase activation in the range of 10% up to 20%)” and “+++ (Gcase activation greater than 60%)”.
Regarding `Cc1cc(C)n2ncc(C(=O)Nc3ccc(CCCC(=O)O)cc3)c2n1` [III-34], the “Percent Gcase Activation 0.1 μM Test Compound” value is reported as “* (less than 10% Gcase activation)” and the “Percent Gcase Activation 1 μM Test Compound” value was “+ (less than 30% Gcase activation)”.
`Cc1cc(C)n2ncc(C(=O)Nc3ccc(N=[N+]=[N-])cc3)c2n1` [III-38]: the “Percent Gcase Activation 0.1 μM Test Compound” value is “* (less than 10% Gcase activation)” and the “Percent Gcase Activation 1 μM Test Compound” value is “++ (Gcase activation in the range of 30% up to 60%)”.
The corresponding values for `C#C[C@H]1CC[C@H](NC(=O)c2cnn3c(C)cc(C)nc23)CC1` [III-14] are “* (less than 10% Gcase activation)” and “+ (less than 30% Gcase activation)”.
The corresponding values for `Cc1cc(C)n2ncc(CNc3ccc(-c4cocn4)cc3)c2n1` [III-37] are “* (less than 10% Gcase activation)” and “+ (less than 30% Gcase activation)”.
